Experimental data from US20250319108A1, “COMBINATIONS” (AN2 Therapeutics, Inc., priority 2021, published 2025).
Converted amounts (≈) assume the structure as drawn. Where two headings read alike, the source gives them in different places.

How the values were obtained:
[1] = system: M. avium ATCC 700898; details: Sensititre SLOMYCO plate; cited from earlier work
[2] = system: M. abscessus ATCC 19977; assay: MIC, broth microdilution; format: cell-based; details: Mycobacteroides abscessus, ATCC19977, read-out: In Vitro Activity (MIC)
Description: (§1) Minimum inhibitory concentration (MIC) determinations: MIC values for the putative EBO resistant mutants were determined by broth microdilution method (BMD) in cation-adjusted Mueller Hinton broth according to Clinical and Laboratory Standards Institute document M24-A3 (Clinical and Laboratory Standards Institute. Susceptibility Testing of Mycobacteria, Nocardia spp., and Other Aerobic Actinomycetes. 3rd ed. CLSI standard M24. Clinical and Laboratory Standards Institute, Wayne, PA: 2018). Agar MIC values were determined as essentially described by CLSI M24-A3 using 7H10 Middlebrook agar and 5% OADC.

[3] = system: M. avium 2285R; assay: MIC, broth microdilution; format: cell-based; details: Mycobacterium avium, read-out: In Vitro Activity (MIC)
Description: as §1

[4] = system: M. avium ATCC 700858; assay: MIC, broth microdilution; format: cell-based; details: Mycobacterium avium, ATCC700858, read-out: In Vitro Activity (MIC)
Description: as §1

[5] = system: M. chimaera 20-S-05; assay: MIC, broth microdilution; format: cell-based; details: 20S05, read-out: In Vitro Activity (MIC)
Description: as §1

[6] = system: M. intracellulare 20-S-13; assay: MIC, broth microdilution; format: cell-based; details: Mycobacterium intracellulare
Description: as §1

[7] = system: M. intracellulare DNA000111; assay: MIC, broth microdilution; format: cell-based; details: Mycobacterium intracellulare, read-out: In Vitro Activity (MIC)
Description: as §1

[8] = system: M. peregrinum ATCC 700686; assay: MIC, broth microdilution; format: cell-based; details: Mycolicibacterium peregrinum, ATCC700686, read-out: In Vitro Activity (MIC)
Description: as §1

[9] = system: M. avium ATCC 700898; assay: Agar MIC; format: cell-based; details: Mycobacterium avium, ATCC700898; 7H10 Middlebrook agar, 5% OADC
Description: as §1
(§2) Resistant colonies were confirmed by replica plating on agar plates containing antibiotic at the same concentration used to select resistance. Control plates containing no drug were prepared for inoculum determination. The RF was calculated by dividing the total CFU/mL of resistant colonies by the total CFU/mL of the inoculum.

[10] = system: M. avium ATCC 700898 isolate 16-3A; assay: MIC, EBO selected isolate; format: cell-based; details: Mycobacterium avium
Description: as §1, §2

[11] = system: M. avium ATCC 700898 isolate 16-5A; assay: MIC, EBO selected isolate; format: cell-based; details: Mycobacterium avium
Description: as §1, §2

[12] = system: M. avium ATCC 700898 isolate 32-5A; assay: MIC, EBO selected isolate; format: cell-based; details: Mycobacterium avium
Description: as §1, §2

[13] = system: M. avium ATCC 700898 isolate 32-8A; assay: MIC, EBO selected isolate; format: cell-based; details: Mycobacterium avium
Description: as §1, §2

[14] = system: M. avium ATCC 700898 isolate 64-3A; assay: MIC, EBO selected isolate; format: cell-based; details: Mycobacterium avium
Description: as §1, §2

[15] = system: M. avium ATCC 700898 isolate 64-4A; assay: MIC, EBO selected isolate; format: cell-based; details: Mycobacterium avium
Description: as §1, §2

[16] = system: M. avium ATCC 700898 WT; assay: MIC, parent strain; format: cell-based; details: Mycobacterium avium, ATCC700898
Description: as §1, §2

[17] = 20S13, M. intracellulare 20-S-13, read-out: In Vitro Activity (MIC)

| SMILES | MIC variance previously reported for this strain [1] [fold] | MIC [2] [µg/mL] | MIC [3] [µg/mL] | MIC [4] [µg/mL] | MIC [5] [µg/mL] | MIC [6, 17] [µg/mL] | MIC [7] [µg/mL] | MIC [8] [µg/mL] | MIC [9] [µg/mL] | MIC [10] [µg/mL] | MIC [11] [µg/mL] | MIC [12] [µg/mL] | MIC [13] [µg/mL] | MIC [14] [µg/mL] | MIC [15] [µg/mL] | MIC [16] [µg/mL] | MIC ([6]; 20S13, read-out: In Vitro Activity (MIC)) [µg/mL] |
| --- | --- | --- | --- | --- | --- | --- | --- | --- | --- | --- | --- | --- | --- | --- | --- | --- | --- |
| CO[C@H]1/C=C/O[C@@]2(C)Oc3c(C)c(O)c4c(O)c(c(/C=N/N5CCN(C)CC5)c(O)c4c3C2=O)NC(=O)/C(C)=C\C=C\[C@H](C)[C@H](O)[C@@H](C)[C@@H](O)[C@@H](C)[C@H](OC(C)=O)[C@@H]1C [rifampin, Rifampin] | 8 | – | – | – | – | – | – | – | – | – | – | – | – | – | – | – | – |
| NCC[C@H](O)C(=O)N[C@@H]1C[C@H](N)[C@@H](O[C@H]2O[C@H](CN)[C@@H](O)[C@H](O)[C@H]2O)[C@H](O)[C@H]1O[C@H]1O[C@H](CO)[C@@H](O)[C@H](N)[C@H]1O [AMK, Amikacin] | – | 64 (≈ 109 µM) | 8 (≈ 13.7 µM) | 16 (≈ 27.3 µM) | 32 (≈ 54.6 µM) | 20 (≈ 34.2 µM) | 16 (≈ 27.3 µM) | 2 (≈ 3.42 µM) | 32 (≈ 54.6 µM) | 32 (≈ 54.6 µM) | 32 (≈ 54.6 µM) | 32 (≈ 54.6 µM) | 32 (≈ 54.6 µM) | 32 (≈ 54.6 µM) | 32 (≈ 54.6 µM) | – | – |
| CO[C@H]1/C=C/O[C@@]2(C)Oc3c(C)c(O)c4c(c3C2=O)C2=NC3(CCN(CC(C)C)CC3)NC2=C(NC(=O)/C(C)=C\C=C\[C@H](C)[C@H](O)[C@@H](C)[C@@H](O)[C@@H](C)[C@H](OC(C)=O)[C@@H]1C)C4=O [RFB, Rifabutin] | – | 32 (≈ 37.8 µM) | 0.125 (≈ 0.148 µM) | 0.25 (≈ 0.295 µM) | 1 (≈ 1.18 µM) | 0.06 (≈ 0.0708 µM) | 2 (≈ 2.36 µM) | 8 (≈ 9.44 µM) | 0.25 (≈ 0.295 µM) | 0.06 (≈ 0.0708 µM) | 0.06 (≈ 0.0708 µM) | 0.06 (≈ 0.0708 µM) | 0.125 (≈ 0.148 µM) | 0.06 (≈ 0.0708 µM) | 0.25 to 0.5 (≈ 0.295 to 0.59 µM) | 0.06 (≈ 0.0708 µM) | – |
| COc1nc2ccc(Br)cc2cc1[C@@H](c1ccccc1)[C@@](O)(CCN(C)C)c1cccc2ccccc12 [BDQ, Bedaquiline] | – | 0.5 (≈ 0.9 µM) | 0.03 (≈ 0.054 µM) | 0.06 (≈ 0.108 µM) | 0.06 (≈ 0.108 µM) | – | 0.5 (≈ 0.9 µM) | 0.06 (≈ 0.108 µM) | – | 0.06 (≈ 0.108 µM) | 0.06 (≈ 0.108 µM) | 0.03 (≈ 0.054 µM) | 0.12 (≈ 0.216 µM) | 0.12 (≈ 0.216 µM) | 0.06 (≈ 0.108 µM) | 0.06 (≈ 0.108 µM) | > 0.5 |
